“Also recorded” adds a separate entry of the source.
Key:
[1] = tested on: surface-attached P. aeruginosa; test: Image-based virulence (host killing) assay with amoeba host cells and calcein-AM; format: cell-based, Pseudomonas aeruginosa; details: for host-killing activity (host killing index): surface-attached wild-type P. aeruginosa in rich (PS:DB) medium, supplemented at 3 hours at 0.2%, assessed after 6 hours of growth, amoeba host cells
Description: P. aeruginosa cells were assayed using an image-based virulence assay as described previously (12, 50). P. aeruginosa strains were cultured in PS:DB, diluted 1:100 into 60×15 mm plastic petri dishes (Corning, Corning, N.Y.), cultured for 4 to 6 hours by shaking at 100 rpm, and harvested. Planktonic cells were assayed by transferring 10 μL of culture from the petri dish to a new petri dish, mixing with an equal volume of D. discoideum that were grown to an OD600 of 0.2-0.5, and immobilizing by placing an agar pad on top of the mixture (FIG. 11C). Agar pads were made using Bacto agar at a concentration of 1%, DB buffer, and 1 μM calcein acetoxymethyl (AM) ester (Molecular Probes, Eugene, Oreg.), and were cut into 1.5×1.5 cm squares (12, 50). Surface-attached cells were assayed by aspirating planktonic cells from the culture, washing with DB buffer to remove planktonic cells, mixing with an equal volume of D. discoideum, and immobilizing by placing an agar pad on top of the mixture (FIG. 11C) (50). The immobilized planktonic or surface-attached P. aeruginosa and D. discoideum were incubated at room temperature for 1 hour and imaged using fluorescence microscopy. The host killing index (12, 50) was computed as the average ratio of calcein-AM fluorescence to cell area in individual amoeba cells for 30 to 200 cells in each experiment.
Fluorescence microscopy to assess calcein-AM fluorescence was performed using a Nikon Eclipse Ti-E microscope (Nikon, Melville, N.Y.) containing Nikon 10× Plan Fluor Ph1 (0.3 NA) and 20×S Plan Fluor Nikon (0.45 NA) objectives, a Sola light engine (Lumencor, Beaverton, Oreg.), an LED-DA/FI/TX filter set (Semrock, Rochester, N.Y.) containing a 409/493/596 dichroic and 474/27 nm and 525/45 nm filters for excitation and emission, respectively, and a Hamamatsu Orca Flash 4.0 V2 camera (Hamamatsu, Bridgewater, N.J.). Images were acquired using Nikon NIS-Elements and analyzed using custom built software written previously (12) in Matlab (Mathworks, Natick, Mass.).
For experiments in which strains cultured in PS:DB were supplemented with individual carbon sources (FIG. 5A-D), pyruvic acid, citric acid, […], glycerol, or glucose was added to cultures at a final concentration of 0.2% at 3 hours following a 1:100 dilution from an overnight culture. Cultures were harvested after 1 additional hour of growth for measurements of fluorescence lifetime and NADH and NAD^+ concentrations. For experiments in which surface-attached strains that were cultured in PS:DB media were treated with antimycin A (FIG. 5E-F), 10 μM antimycin A dissolved in 0.1% ethanol, 0.1% ethanol, alone, or 10 μM antimycin A dissolved in 0.1% ethanol and 0.2% citric acid were added after 3 hours of growth following a 1:100 dilution from an overnight culture. Host killing was measured after an additional 1 to 3 hours of growth (total of 4 to 6 hours of growth).

P. aeruginosa = test: Colorimetric enzyme-cycling assay of NADH and NAD+ concentrations; format: cell-based, Pseudomonas aeruginosa; details: for NADH/NAD+ ratio / total concentrations of NADH and NAD+ / change in NADH/NAD+ ratio / change in total NAD(H) production: surface-attached; for NADH/NAD+ ratio / total concentrations of NADH and NAD+: mid-exponential phase; for change in NADH/NAD+ ratio / change in total NAD(H) production: rich (PS:DB) medium, carbon source 0.2% added at 3 hours, harvested after 1 additional hour
Description: The concentrations of reduced and oxidized nicotinamide adenine dinucleotide (NADH, NAD^+) were measured using a colorimetric enzyme-cycling assay as described previously (45). P. aeruginosa strains were cultured overnight in PS:DB, diluted 1:100 into 60×15 mm plastic petri dishes (Corning, Corning, N.Y.) containing the same medium, and grown for 4 to 6 hours. Alternatively, strains were cultured overnight in minimal medium, diluted 1:100 into plastic petri dishes containing modified minimal medium with single carbon sources, and grown to an OD600 of 0.2. Cultures were harvested in a glove box chamber (Bel-Art, Wayne, N.J.) that had been vacuumed to remove air and flushed with nitrogen constantly throughout the experiment to prevent oxidation of NADH. Subsequent steps were performed and solutions were prepared in the glove box unless otherwise indicated. Solutions containing 0.05 to 1 μM of NADH (Sigma) or NAD^+ (Sigma) were included as calibration controls.
Planktonic cells were isolated from petri dishes, pelleted by centrifugation at 16,000×g for 1 min, the residual supernatant was discarded and the pellet was immediately resuspended in 0.2 M NaOH or HCl to extract NADH or NAD^+, respectively, as described previously (45, 46). Surface-attached cells were harvested by aspirating planktonic cells from petri dishes, washing with DB buffer or modified minimal medium with no carbon source for strains cultured in PS:DB or modified minimal medium A containing single carbon sources, respectively, adding 0.2 M NaOH or HCl, and scraping surfaces with a cell scraper (Sarstedt, Nümbrecht, Germany). As a control, the Δphz12 strain was cultured overnight in modified MOPS synthetic medium (46), diluted 1:100 in the same medium in culture tubes for 1 to 4 hours, pelleted by centrifugation, resuspended in 0.2 M NaOH or HCl, as described previously (46). The resuspensions in NaOH or HCl were neutralized using equal volume of 0.1 M HCl or NaOH, respectively, and portions were assayed for protein content, NADH, and NAD^+. Resuspensions were assayed for protein content using a BCA assay kit (ThermoFisher Scientific, Waltham, Mass.) using a 50:1 mixture of solutions A and B from the kit. Solutions were incubated at 37° C. for 30 min and measured for absorbance at 562 nm. Resuspensions that were not used for the BCA assay were normalized by protein content by diluting in Millipore-filtered water.
NADH and NAD^+ concentrations were determined by following the protocol described previously (45). Briefly, normalized resuspensions were centrifuged at 16,000×g for 10 minutes at 4° C. to remove cell debris and mixed with a reaction mixture containing 40 mM EDTA, 1 M bicine (Sigma), 4.2 mM 3-(4,5-dimethylthiazol-2-yl)-2,5-diphenyltetrazolium bromide (Sigma), 16.6 mM phenazine ethosulfate (Sigma), 1 mg/mL alcohol dehydrogenase (Sigma), and ethanol, and the absorbance at 570 nm of the solution was measured in a 96-well plate (Corning Corning, N.Y.) at 30° C. every 30 seconds for 30 minutes using a BioTek Synergy HTX reader (BioTek, Winooski, Vt.). The reaction mixture and the normalized resuspensions were aliquoted and mixed inside the glove box. The centrifugation and absorbance measurements were performed outside of the glove box. The absorbance per unit time was determined by fitting data on the initial velocity of enzyme activity, acquired between 2 to 10 minutes of the absorbance measurements. The absorbances per unit time for the NADH and NAD^+ calibration controls were linearly fit for the full range of calibration concentrations to establish a linear equation that relates the absorbance per unit time and NAD(H) concentration. The NAD(H) concentrations of the planktonic and surface-attached cell resuspensions were determined by inputting the respective absorbance per unit time fits of the samples into these equations. […]

[2] = modified minimal medium, single carbon source at 0.2%
[3] = planktonic cells, modified minimal medium, single carbon source at 0.2%

Compound	host-killing activity (host killing index) [1]	NADH/NAD+ ratio (P. aeruginosa; [2])	total concentrations of NADH and NAD+ (P. aeruginosa; [2])	change in NADH/NAD+ ratio (P. aeruginosa)	change in total NAD(H) production (P. aeruginosa)	effect on the earlier virulence induction by antimycin A ([1]; co-treatment at 3 hours with 0.2% citrate and 10 μM antimycin A in 0.1% ethanol, surface-attached)	NAD(H) concentration relative to glycerol (P. aeruginosa; [3])	NADH/NAD+ ratio relative to glycerol (P. aeruginosa; [3])
OCC(O)CO [glycerol]	no effect on host-killing activity	increasing ratios	intermediate	smallest changes	relatively small impacts	–	–	–
O=C(O)CC(O)(CC(=O)O)C(=O)O [citrate]	inhibited virulence; also recorded: abolished host-killing activity	increasing ratios	intermediate	greatest increases	greatest decreases; also recorded: decreased	inhibited	slightly lower	slightly greater

Source: patent US20220287995A1, “COMPOSITIONS AND METHODS FOR INHIBITING BACTERIAL VIRULENCE AND FLIM-BASED DEVICE AND METHOD FOR ANTIBIOTIC SUSCEPTIBILITY TESTING” (THE REGENTS OF THE UNIVERSITY OF CALIFORNIA, priority 2019, published 2022)
